In data set [1] the test system is IL-6. As to the kind of experiment: TNF-α-induced IL-6 production determined by IL-6 ELISA in HAEC. It is filed as cell-based, human. Conditions: HAEC; for Inhibition of TNF-induced IL6 production: class of % of control IL6 production.
For data set [2], the system named is IL6. As to the kind of experiment: Inflammation Data of Table 8: IL6 production compared to cells that did not receive compound (stimulus AGE or TNF not given). It is filed as cell-based. An excerpt:
Additional bioactivity data for compounds of the present invention are presented in Table 8, where compounds that have at least the activity of effecting cellular proliferation or at least the activity of modulating inflammation activity, as measured by the assays taught herein, are provided. […] The inclusion of compounds in the categories of the Tables disclosed herein, including this Table, is not to be seen as limiting, in that compounds included in such Tables have at least the activity shown for inclusion in the Table and may have more or other activities. Nor are the Tables to be seen as limiting in that these are the only compounds disclosed herein that have that activity, representative compounds are shown in the Tables that have at least that particular activity for inclusion in the Table. One or more compounds disclosed herein have at least an activity that has utility in treatment of disease states. Note that any hydrogen atoms that are required for any atom to attain its usual valence in a structure presented in Table 8, whether a carbon atom or a heteroatom, should be inferred if it is not specifically indicated.

Data set [3] concerns Human aortic smooth muscle cells. The data set is described as follows: Smooth muscle cell proliferation assay (anti-proliferation assay, perlecan). It is filed as cell-based. Conditions: for IC50: Homo sapiens; for Proliferation Data (result in words): 5 & 10 uM screens.
Method: Human aortic smooth muscle cells (Clonetics) were used. Cells were grown in basal medium containing 5% fetal bovine serum supplemented with growth factors, basic fibroblast growth factor, epidermal growth factor and insulin. […] The cells were then serum starved for 24 h to induce quiescence. Fresh growth medium containing no compound or 10 μM compound was then added and further incubated for 24 h. Cell number was determined by using a cell proliferation assay kit (Celltiter96 AQueous from Promega).
For data set [4], the system named is cells. The data set is described as follows: Cytotoxicity / lactate dehydrogenase assay and visual observation of cells. It is filed as cell-based. Conditions: for cell morphology change / cell death observed under Proliferation Data (words with concentration): observed in the proliferation assay. On the procedure: Assays for determining the activity of compounds capable of cytotoxic activity include those taught in herein and others that are well known in the art. In general, to determine if there is cytotoxic activity associated with a compound, cells of a particular type, in a growing stage or a quiescient stage, are treated with the compound of interest. Various parameters of cell death or cessation are used to measure the effects of the compound. For example, the amount of nucleic acid or protein synthesis can be measured or visual observation of the state of the cells, such as release from the substrate, can be used to measure the state of the cells.
An appropriate number of cells are plated in four 96-well plates, one plate for “day 0” and three plates for days 1–3. Cells are treated with at least one compound of the present invention in varying concentrations with and without the apoptosis inducer cisplatin (2 μM) (“+cis” or “−cis”). Unteated cells are also assayed with and without cisplatin. After transfection, the plates are incubated at 37° C. overnight.
An appropriate number of cells are plated in four 96-well plates, one plate for “day 0” and three plates for days 1–3. Cells are treated with at least one compound of the present invention in varying concentrations. The negative control cells have normal media conditions, a duplicate set of wells is treated with the composition in which the compound is provided, but there is no added compound and the positive control cells are treated with the apoptosis inducer cisplatin (2 μM). All of the cells are transfected with a vector having a promoter that is responsive to apoptosis conditions. When apoptosis occurs, the promoter is turned on and the lactic dehydrogenase gene is activated and the enzyme protein is made and active. Activity is easily detected with a color change. After transfection, the plates are incubated at 37° C. overnight.
About 8 mls of warmed alpha MEM LDH lysis buffer (2% Triton X100) and about 8 mls of culture media (½ dilution) are combined. Two 96-well v-bottom plates are prepared, one labeled “lysis” and one labeled “supernatant.” To lyse the cells, about 200 μl Alpha MEM lysis buffer (diluted ½) is added to one test plate from which the supernatant has been removed and added to the plate labeled supernatant. After mixing, about 200 μl of lysed cells are transferred to the lysis plate. Both the lysis and supernatant plates are centrifuged at about 1600 rpm for about 10 min. After centrifugation, about 100 μl of both the supernatant or lysate is transferred to corresponding 96-well flat-bottomed plates.
The assay for cytotoxicity uses the Cytotoxicity Detection Kit (LDH) from Roche Diagnostics Corp. (Indianapolis, Ind.). Using the directionts provided, the dye solution is mixed and added each well of the lysate and supernatant plate and incubated for up to 20–25 min at 15–25° C. in the dark.

[5] abbreviates: read-out: Proliferation Data, average IC50.
The mark [6] stands for this setting: anti-proliferation assay (perlecan), read-out: Activity (note 1).
[7] abbreviates: anti-proliferation assay (perlecan), read-out: Avg IC-50.

Where two headings read alike, the source gives them in different places.

As usually defined, the melting point is the temperature of the solid-liquid transition. A word on the inhibition: it is the drop in the measured response relative to a control, in per cent.

In the case of `CCN1CCCC1CNc1nc(NCC2CCCCC2)nc(Nc2ccc(OC)c(F)c2)n1` (centres unmarked) [Compound 126, N-Cyclohexylmethyl-N′-(1-ethyl-pyrrolidin-2-ylmethyl)-N″-(3-fluoro-4-methoxy-phenyl)-[1,3,5]triazine-2,4,6-triamine], the melting point is 72 °C. `COc1ccc(Nc2nc(NC3CCCCCC3)nc(Oc3ccccc3F)n2)cc1Cl` [Compound E28, N^2-(3-chloro-4-methoxyphenyl)-N^4-cycloheptyl-6-(2-fluorophenoxy)-1,3,5-triazine-4,2-diamine] had a melting point of 98 to 100 °C. For `COc1ccc(Nc2nc(NC3CCCCCC3)nc(OC3CCCN(C(C)=O)C3)n2)cc1Cl` (centres unmarked) [Compound E20, 1-[3-{4-(3-chloro-4-methoxyanilino)-6-cycloheptylamino-1,3,5-triazine-2-yloxy}piperidino]-1-ethanone], the melting point was 138 to 140 °C. For `COc1ccc(Nc2nc(NC3CCCCCC3)nc(OCC3CCCN3)n2)cc1Cl` (centres unmarked) [Compound E22, N^2-(3-chloro-4-methoxyphenyl)-N^4-cycloheptyl-6-(2-azolanylmethoxy)-1,3,5-triazine-2,4-diamine], the melting point was in the range of 84 to 86 °C. As to `COc1ccc(Nc2nc(NC(C)C)nc(N(C)C3CCNCC3)n2)cc1Cl` [Compound 107, N^2-(3-chloro-4-methoxy-phenyl)-N^4-isopropyl-N^6-methyl-N^6-piperidin-4-yl-1,3,5-triazine-2,4,6-triamine], the melting point is 129 °C. In addition, in data set [1], the “Inhibition of TNF-induced IL6 production” value is “++ (between about 50 and about 75% of control IL6 production)”. Moreover, the activity at 5 µM in data set [1] (Homo sapiens, 24 h, read-out: % IL6 production compare to TNF stimulation of IL6 (100%), @ 5 uM, IL6) came to 60%. For `COc1ccc(Nc2nc(NCCCCCO)nc(N(C)C3CCNCC3)n2)cc1Cl` [Compound 109, 5-[4-(3-chloro-4-methoxy-phenylamino)-6-(methyl-piperidin-4-yl-amino)-1,3,5-triazin-2-ylamino]-pentan-1-ol], the melting point is 101 °C. In data set [1], the “Inhibition of TNF-induced IL6 production” value was “+++ (between about 25 and about 50% of control IL6 production)”. Also, in data set [1] (Homo sapiens, 24 h, read-out: % IL6 production compare to TNF stimulation of IL6 (100%), Compds tested @ 10 uM, IL6), the activity at 10 µM is 40%. For `COc1ccc(Nc2nc(Cl)nc(OCC3CCCCC3)n2)cc1Cl` [Compound 117, (4-Chloro-6-cyclohexylmethoxy-[1,3,5]triazin-2-yl)-(3-chloro-4-methoxy-phenyl)-amine], the melting point was 114 °C. The compound `CCN1CCCC1CNc1nc(Nc2ccc(OC)c(F)c2)nc(OCC2CCCCC2)n1` (centres unmarked) [Compound 116, 6-Cyclohexylmethoxy-N-(1-ethyl-pyrrolidin-2-ylmethyl)-N′-(3-fluoro-4-methoxy-phenyl)-[1,3,5]triazine-2,4-diamine] returned a melting point of 59 °C.

Compound `COc1ccc(Nc2nc(NC3CCCCCC3)nc(OC(C)C)n2)cc1Cl` [Compound E21, N^2-(3-chloro-4-methoxyphenyl)-N^4-cycloheptyl-6-isopropoxy-1,3,5-triazine-2,4-diamine] displayed a melting point of 136 to 138 °C. Regarding `COc1ccc(Nc2nc(NC3CCCCCC3)nc(OC3CCNCC3)n2)cc1Cl`, the inhibition at 10 µM in data set [2] (at 10 uM) came out at 85%. Further, in data set [3] (setting [5]), the IC50 is 1.85 µM. The “cell death under Inflammation Data” value in data set [4] (at 10 uM) was 20%. For `COc1ccc(Nc2nc(NC3CCCCCC3)nc(OC3CCCNC3)n2)cc1Cl` (centres unmarked), the inhibition at 10 µM in data set [2] (at 10 uM) came out at 60%. Further, the IC50 in data set [3] (setting [5]) was determined as 4.9 µM. Further, the “cell death under Inflammation Data” value in data set [4] (at 10 uM) came out at 20%.

For the compound `COc1ccc(Nc2nc(Nc3ccc(OC)c(F)c3)nc(OCC3CCCCC3)n2)cc1F` [Compound 115, 6-Cyclohexylmethoxy-N,N′-bis-(3-fluoro-4-methoxy-phenyl)-1,3,5-triazine-2,4-diamine], the melting point was determined as 181 °C.

Compound `COc1ccc(Nc2nc(NC3CCCCCC3)nc(N3CCSCC3)n2)cc1Cl` gave a melting point of 78 to 80 °C.

As for `COc1ccc(Nc2nc(Nc3ccc(OC)c(Cl)c3)nc(OCC3CCCCC3)n2)cc1Cl` [Compound 118, N,N′-Bis-(3-chloro-4-methoxy-phenyl)-6-cyclohexylmethoxy-1,3,5-triazine-2,4-diamine], the melting point is 188 °C. In the case of `COc1ccc(Nc2nc(NC3CCCCCC3)nc(N3CCN(C)CC3)n2)cc1Cl`, 10 µM produced 75% inhibition in data set [2] (at 10 uM). In addition, in data set [3], the “Proliferation Data (result in words)” value is “Did not pass”. The “cell death under Inflammation Data” value in data set [4] (at 5 uM) was 25%; in data set [4] (at 10 uM), “total cell death”. In addition, in data set [4], the “cell morphology change / cell death observed under Proliferation Data (words with concentration)” value is recorded as “blunting androunding”. As for `COc1ccc(Nc2nc(NC3CCCCCC3)nc(N3CCCC3CO)n2)cc1Cl` (centres unmarked), the “Inflammation Data (result in words)” value in data set [2] (concentration not given) is given as “Not Active”. In data set [3], the “Proliferation Data (result in words)” value is “Did not pass”. The “cell morphology change / cell death observed under Proliferation Data (words with concentration)” value in data set [4] is “rounding”. Regarding `COc1ccc(Nc2nc(NN3CCCCCC3)nc(N(C)C3CCNCC3)n2)cc1Cl`, the melting point is 81 °C. `COc1ccc(Nc2nc(Nc3ccc(OC)c(Cl)c3)nc(NC3CCCCCC3)n2)cc1Cl` [Compound 122, N,N′-Bis-(3-chloro-4-methoxy-phenyl)-N″-cycloheptyl-[1,3,5]triazine-2,4,6-triamine] displayed a melting point of 183 °C. The compound `COc1ccc(Nc2nc(NC3CCCCCC3)nc(N(C)C3CCNCC3)n2)cc1Cl` [Compound 146, N^2-(3-chloro-4-methoxy-phenyl)-N^4-cycloheptyl-N^6-methyl-N^6-piperidin-4-yl-1,3,5-triazine-2,4,6-triamine] showed a melting point of 114 to 116 °C. Also, in data set [3] (setting [6]), the IC50 was less than 3 µM. Also, the IC50 in data set [3] (setting [7]) is roughly 2.2 µM.

`COc1ccc(Nc2nc(Cl)nc(NCC3CCCCC3)n2)cc1F` [Compound 125, 6-Chloro-N-cyclohexylmethyl-N′-(3-fluoro-4-methoxy-phenyl)-[1,3,5]triazine-2,4-diamine] returned a melting point of 156 °C. For the same compound, in data set [3] (setting [6]), the IC50 was greater than 7 µM. In addition, the IC50 in data set [3] (setting [7]) came to 10 µM.

Regarding `COc1ccc(Nc2nc(Cl)nc(Cl)n2)cc1F` [Compound 124, (4,6-Dichloro-[1,3,5]triazin-2-yl)-(3-fluoro-4-methoxy-phenyl)-amine], the melting point was found to be 134 °C. The compound `COc1ccc(Nc2nc(O)nc(NC3CCCCCC3)n2)cc1Cl` [Compound 147, 4-(3-Chloro-4-methoxy-phenylamino)-6-cycloheptylamino-1,3,5-triazin-2-ol] gave a melting point greater than 310 °C. For `COc1ccc(Nc2nc(NC3CCCCCC3)nc(OCC3CCCN3C)n2)cc1Cl` (centres unmarked), the “Inflammation Data, inhibition” value in data set [2] (at 10 uM) was “complete inhibition”. Besides, the IC50 in data set [3] (setting [5]) came to 5.25 µM. Moreover, in data set [4] (at 10 uM), the “cell death under Inflammation Data” value was “total cell death”. For `COc1ccc(Nc2nc(Cl)nc(OCC3CCCCC3)n2)cc1F` [Compound 114, (4-Chloro-6-cyclohexylmethoxy-[1,3,5]triazin-2-yl)-(3-fluoro-4-methoxy-phenyl)-amine], the melting point amounted to 98 °C.
